{"source": "patent US20100056519A1", "about": "“COMPOSITION AND METHOD FOR REDUCING PLATELET ACTIVATION AND FOR THE TREATMENT OF THROMBOTIC EVENTS” (priority 2008, published 2010)", "format_in_all_cases": "cell-based, human", "key": {"LAMP-3 (CD63)": {"system": "LAMP-3 (CD63)", "test": "Unstimulated whole blood flow cytometry, LAMP-3", "settings": "unstimulated, Mean ± SD", "method": "(§1) The methodology employed was conventional aggregation induced by 5 μM ADP, 1 μg/ml collagen, 10 μM TRAP, whole blood aggregation with 1 μg/ml collagen, Ultegra, and PFA-100 Analyzers, expression of 14 intact, and TRAP-stimulated major receptors by whole blood flow cytometry were utilized to assess platelet activity after preincubation with escalating concentrations of E5555 (20 ng/ml, 50 ng/ml, and 100 ng/ml). The experiments were performed in healthy volunteers, CAD patients treated with ASA, and CAD patients treated with ASA and clopidogrel combination (n=10, for each group).\n(§2) An Informed Consent was obtained from all volunteers. Drug users were excluded from data analysis. The study was approved by Quorum Institutional Review Board. All subjects underwent blood sampling after at least 30 minutes of rest and two or more hours of fasting. Blood (28 ml) was drawn between 8 and 10 a.m. in order to avoid any diurnal influence and sampled from an antecubital vein using a 21-gauge butterfly needle containing 3.2% sodium citrate (1:9 volume) after having discarded the first 1.5 ml of free running blood. Four Vacutainer tubes (7.0 ml) were collected for a total of 28 ml of whole blood-citrate mixture from each study participant. Chronologically, blood samples were delivered to the core laboratory facility within 45 minutes after drawing. Then all tubes of blood-citrate mixture were pooled. One portion of pooled blood (5 ml) was kept as an internal control and pretreated with the vehicle. The remaining blood (23 ml) was used for the in vitro exposure to E5555 at concentrations of 20 ng/ml, 50 ng/ml, and 100 ng/ml. […] The platelet aggregation studies, Rapid Analyzers measures, and flow cytometry preparations were initiated within no more than 110 minutes following the blood draw, incubation with the drug, and preparation of the samples.\n(§3) Formation of platelet-leukocyte aggregates was assessed by dual labeling with pan-platelet marker (CD151), and then with CD14, the macrophage receptor for endotoxin lipopolysaccharides (PharMingen, and Coulter, San Diego, Calif., USA). The tubes were then covered with aluminum foil and incubated at 37° C. for 40 minutes with gentle rotation. After incubation, samples were immediately analyzed on a Becton Dickinson FACScan flow cytometer. The instrument was set up to measure forward light scatter, and FITC fluorescence. All parameters were collected using four-decade logarithmic amplification. The data was retrieved in list mode files and then analyzed. P selectin was expressed as percent positive cells. Other antigens were expressed as log mean fluorescence intensity."}, "LAMP-1 (CD107a)": {"system": "LAMP-1 (CD107a)", "test": "TRAP-stimulated whole blood flow cytometry, LAMP-1", "settings": "Mean ± SD", "method": "as §1, §2, §3\n(§4) For flow cytometry (TRAP-stimulated) all of the above flow cytometry experiments were identically repeated utilizing prestimulation with 10 μmol/L TRAP for 5 minutes at 37° C. To determine statistics, a Paired Sign Test was used to define significance of differences between vehicle and E5555-treated groups. The Mann-Whitney U test was used to analyze nonparametric data. Normally distributed data were expressed as mean±standard error (m±SE), and skewed data as median (range). All P-values were two sided. All analysis was performed using the SPSS v9.0 program (SPSS Inc., Chicago, Ill.)."}, "[1]": {"system": "Thrombospondin-Receptor (CD36)", "test": "TRAP-stimulated whole blood flow cytometry, thrombospondin receptor", "settings": "Mean ± SD", "method": "as §1, §2, §3, §4"}, "WEDE15": {"system": "WEDE15", "test": "TRAP-stimulated whole blood flow cytometry, WEDE15", "settings": "Mean ± SD", "method": "as §1, §2, §3, §4"}, "[2]": {"settings": "E5555 50 ng/ml, Patients (ASA + C)"}, "[3]": {"settings": "E5555 100 ng/ml, Patients (ASA + C)"}, "[4]": {"settings": "E5555 100 ng/ml, Patients (ASA)"}, "[5]": {"settings": "E5555 20 ng/ml, Patients (ASA + C)"}}, "data": [{"smiles": "Br.CCOc1cc2c(c(F)c1OCC)C(=N)N(CC(=O)c1cc(N3CCOCC3)c(OC)c(C(C)(C)C)c1)C2", "note": "[E5555, 1-(3-tert-butyl-4-methoxy-5-morpholinophenyl)-2-(5,6-diethoxy-7-fluoro-1-imino-1,3-dihydro-2H-isoindol-2-yl)ethanone hydrobromide]", "values": [{"measurement": "LAMP-3 (CD63), Mean Fluorescence Intensity", "setting": "LAMP-3 (CD63); E5555 20 ng/ml, Patients (ASA)", "result": "7.0 ± 1.6", "unit": "MFI"}, {"measurement": "LAMP-3 (CD63), Mean Fluorescence Intensity", "setting": "LAMP-3 (CD63); E5555 20 ng/ml, Volunteers", "result": "8.1 ± 2.0", "unit": "MFI"}, {"measurement": "LAMP-3 (CD63), Mean Fluorescence Intensity", "setting": "LAMP-3 (CD63); [2]", "result": "7.0 ± 1.7", "unit": "MFI"}, {"measurement": "LAMP-3 (CD63), Mean Fluorescence Intensity", "setting": "LAMP-3 (CD63); E5555 50 ng/ml, Patients (ASA)", "result": "7.2 ± 1.5", "unit": "MFI"}, {"measurement": "LAMP-3 (CD63), Mean Fluorescence Intensity", "setting": "LAMP-3 (CD63); E5555 50 ng/ml, Volunteers", "result": "8.0 ± 1.7", "unit": "MFI"}, {"measurement": "LAMP-3 (CD63), Mean Fluorescence Intensity", "setting": "LAMP-3 (CD63); [3]", "result": "6.9 ± 1.8", "unit": "MFI"}, {"measurement": "LAMP-3 (CD63), Mean Fluorescence Intensity", "setting": "LAMP-3 (CD63); [4]", "result": "6.5 ± 1.9", "unit": "MFI"}, {"measurement": "LAMP-3 (CD63), Mean Fluorescence Intensity", "setting": "LAMP-3 (CD63); E5555 100 ng/ml, Volunteers", "result": "7.7 ± 2.1", "unit": "MFI"}, {"measurement": "LAMP-1 (CD107a), Mean Fluorescence Intensity", "setting": "LAMP-1 (CD107a); [5]", "result": "4.0 ± 0.8", "unit": "MFI"}, {"measurement": "LAMP-1 (CD107a), Mean Fluorescence Intensity", "setting": "LAMP-1 (CD107a); E5555 20 ng/ml, Patients (ASA)", "result": "4.1 ± 0.7", "unit": "MFI"}, {"measurement": "LAMP-1 (CD107a), Mean Fluorescence Intensity", "setting": "LAMP-1 (CD107a); E5555 20 ng/ml, Volunteers", "result": "5.9 ± 0.8", "unit": "MFI"}, {"measurement": "LAMP-1 (CD107a), Mean Fluorescence Intensity", "setting": "LAMP-1 (CD107a); [2]", "result": "3.2 ± 1.0", "unit": "MFI"}, {"measurement": "LAMP-1 (CD107a), Mean Fluorescence Intensity", "setting": "LAMP-1 (CD107a); E5555 50 ng/ml, Patients (ASA)", "result": "4.0 ± 0.5", "unit": "MFI"}, {"measurement": "LAMP-1 (CD107a), Mean Fluorescence Intensity", "setting": "LAMP-1 (CD107a); E5555 50 ng/ml, Volunteers", "result": "4.9 ± 0.4", "unit": "MFI"}, {"measurement": "LAMP-1 (CD107a), Mean Fluorescence Intensity", "setting": "LAMP-1 (CD107a); [3]", "result": "3.0 ± 1.1", "unit": "MFI"}, {"measurement": "LAMP-1 (CD107a), Mean Fluorescence Intensity", "setting": "LAMP-1 (CD107a); [4]", "result": "3.1 ± 0.7", "unit": "MFI"}, {"measurement": "LAMP-1 (CD107a), Mean Fluorescence Intensity", "setting": "LAMP-1 (CD107a); E5555 100 ng/ml, Volunteers", "result": "4.7 ± 0.8", "unit": "MFI"}, {"measurement": "Thrombospondin-Receptor (CD36), Mean Fluorescence Intensity", "setting": "[1]; [5]", "result": "6 ± 1", "unit": "MFI"}, {"measurement": "Thrombospondin-Receptor (CD36), Mean Fluorescence Intensity", "setting": "[1]; E5555 20 ng/ml, Patients (ASA)", "result": "6 ± 2", "unit": "MFI"}, {"measurement": "Thrombospondin-Receptor (CD36), Mean Fluorescence Intensity", "setting": "[1]; E5555 20 ng/ml, Volunteers", "result": "9 ± 1", "unit": "MFI"}, {"measurement": "Thrombospondin-Receptor (CD36), Mean Fluorescence Intensity", "setting": "[1]; [2]", "result": "5 ± 1", "unit": "MFI"}, {"measurement": "Thrombospondin-Receptor (CD36), Mean Fluorescence Intensity", "setting": "[1]; E5555 50 ng/ml, Patients (ASA)", "result": "7 ± 1", "unit": "MFI"}, {"measurement": "Thrombospondin-Receptor (CD36), Mean Fluorescence Intensity", "setting": "[1]; E5555 50 ng/ml, Volunteers", "result": "9 ± 2", "unit": "MFI"}, {"measurement": "Thrombospondin-Receptor (CD36), Mean Fluorescence Intensity", "setting": "[1]; [3]", "result": "6 ± 2", "unit": "MFI"}, {"measurement": "Thrombospondin-Receptor (CD36), Mean Fluorescence Intensity", "setting": "[1]; [4]", "result": "7 ± 2", "unit": "MFI"}, {"measurement": "Thrombospondin-Receptor (CD36), Mean Fluorescence Intensity", "setting": "[1]; E5555 100 ng/ml, Volunteers", "result": "9 ± 1", "unit": "MFI"}, {"measurement": "WEDE15, Mean Fluorescence Intensity", "setting": "WEDE15; [5]", "result": "33 ± 5", "unit": "MFI"}, {"measurement": "WEDE15, Mean Fluorescence Intensity", "setting": "WEDE15; E5555 20 ng/ml, Patients (ASA)", "result": "38 ± 6", "unit": "MFI"}, {"measurement": "WEDE15, Mean Fluorescence Intensity", "setting": "WEDE15; E5555 20 ng/ml, Volunteers", "result": "40 ± 7", "unit": "MFI"}, {"measurement": "WEDE15, Mean Fluorescence Intensity", "setting": "WEDE15; [2]", "result": "34 ± 6", "unit": "MFI"}, {"measurement": "WEDE15, Mean Fluorescence Intensity", "setting": "WEDE15; E5555 50 ng/ml, Patients (ASA)", "result": "39 ± 6", "unit": "MFI"}, {"measurement": "WEDE15, Mean Fluorescence Intensity", "setting": "WEDE15; E5555 50 ng/ml, Volunteers", "result": "40 ± 5", "unit": "MFI"}, {"measurement": "WEDE15, Mean Fluorescence Intensity", "setting": "WEDE15; [3]", "result": "33 ± 6", "unit": "MFI"}, {"measurement": "WEDE15, Mean Fluorescence Intensity", "setting": "WEDE15; [4]", "result": "40 ± 8", "unit": "MFI"}, {"measurement": "WEDE15, Mean Fluorescence Intensity", "setting": "WEDE15; E5555 100 ng/ml, Volunteers", "result": "40 ± 8", "unit": "MFI"}]}]}
